# Patent US7641914B2, “Acid-sensitive compounds, their preparation and uses” (Gencell, S.A., priority 2000, dated 2010)
# What was measured:
# HeLa cells = assay: In vitro transfection of HeLa cells, luciferase activity; format: cell-based, human; conditions: charge ratios 1.0 to 10.0 nmol lipid/μg DNA
# Procedure: This study was carried out at 4 different charge ratios: 1.0 or 4.0 or 6.0 or 10.0 nmol of lipid/μg of DNA. Each of these conditions was tested with and without fetal calf serum (A+ or − Serum a))
# Culture of the cells: HeLa cells (American Type Culture Collection (ATCC) Manassas, Va., USA) derived from a human cervical epithelium carcinoma, were cultured in the presence of a medium of the MEM (“minimum essential medium”) type with addition of 2 mM L-glutamine, 50 units/ml of penicillin, and 50 units/ml of streptomycin. The medium and the additives were obtained from Gibco/BRL Life Technologies/InvitroGen (Gaithersburg, Md., USA). The cells were cultured in flasks at 37° C. and at 5% carbon dioxide in an incubator. […]
# An aliquot of 10 μl of supernatant of the lysate centrifuged (12,000×g) for 5 minutes at 4° C. was measured with the Wallac Victor2 luminometer (1420 Multilabel counter).
# The luciferase activity was assayed by the emission of light in the presence of luciferin, of coenzyme A and of ATP for 10 seconds and expressed relative to 2000 treated cells. The luciferase activity was thus expressed as Relative Light Unit (“RLU”) and normalized with the concentration of proteins in the sample obtained using a Pierce BCA kit (Rockford, Ill., USA).
# DNA = assay: Ethidium bromide fluorescence test of DNA compaction and release in acidic medium; format: physicochemical; conditions: for variation in fluorescence over time (EtBr) / release of DNA over time (increase in EtBr fluorescence): pH 5, 37° C.; for variation in fluorescence over time (EtBr): 0.4 nmol lipid/pg of DNA, DNA not completely compacted; for release of DNA over time (increase in EtBr fluorescence): 1.7 and 6.0 nmol lipid/μg of DNA, complete compaction
# Procedure: This was easily shown by a fluorescence test with ethidium bromide (EtBr): the absence of fluorescence reflects the absence of free DNA, that means that the DNA was compacted.
# The DNA was brought into contact with increasing quantities of control cationic lipid or of acid-sensitive compound A Syn or Trans, by mixing an equal volume of lipid solutions of different titers with the DNA solutions. Samples of 800 μl of DNA complexes having a concentration of […] were thus prepared in a sodium chloride solution at 150 mM with increasing quantities of control cationic lipid or of acid-sensitive compound A Syn or Trans.
# At time t=0, 200 μl of buffer having a concentration of 0.1 mol/l at pH 5 were added to these samples and the samples were stored in an oven at 37° C. The fluorescence with ethidium bromide (EtBr) was measured over time (measurement at 20° C.) using a FluoroMax-2 (Jobin Yvon-Spex), with excitation and emission wavelengths of 260 nm and 590 nm respectively. The slit widths for excitation and for emission were set at 5 nm. The fluorescence value was recorded after addition of 3 μl of ethidium bromide at 1 g/l per ml of DNA/cationic lipid or DNA/acid-sensitive compound solution (at 0.01 mg of DNA/ml).
Compound,transfection activity (HeLa cells),variation in fluorescence over time (EtBr) (DNA),release of DNA over time (increase in EtBr fluorescence) (DNA),time of release of DNA after the addition of acid (DNA; pH 5 and 37° C.)
"CCCCCCCCCCCCCCCCCCN(CCCCCCCCCCCCCCCCCC)C(=O)CCCOC1OCC(CNC(=O)CNCCCNCCCCNCCCN)O1 (stereo not drawn) [Compound A Syn, 4-{4-[(2-{3-[4-(3-amino-propylamino)butylamino]propyl-amino}acetylamino)methyl]-[1,3]dioxolan-2-yloxy}-N,N-dioctadecylbutyramide tetraacetate]",high transfection activity,no significant variation in fluorescence,released the DNA over time,a few hours
"CCCCCCCCCCCCCCCCCCN(CCCCCCCCCCCCCCCCCC)C(=O)CNC(=O)CNCCCNCCCCNCCCN [control cationic lipid, H2N—(CH2)3—NH—(CH2)4—NH—(CH2)3—NH—CH2—CO-Gly-N[(CH2)17—CH3]2, reference compound]",high transfection activity,no significant variation in fluorescence,not the case,–
